# Laboratory results as given in paper PMC6124754, “Characterization of new, efficient Mycobacterium tuberculosis topoisomerase-I inhibitors and their interaction with human ABC multidrug transporters” (PLoS ONE, 2018).
# Entries after “also recorded” stand apart in the source; their conditions may differ.
# Tests used:
# human ABCG2 [1] = target: T1, human ABCG2 (Homo sapiens, UniProt Q9UNQ0); experiment: Cellular transport assay, DCV or mitoxantrone uptake in ABCG2-overexpressing PLB cells; format: cell-based; set-up: expressed in transfected cells; host or cells: PLB (human lymphoblastoid) cells, lentiviral transduction; conditions: for Effect on ABCG2 mediated transport (in words): PLB cells, compound 5 μM; for ABC transporter transport assay, ABCG2 (summary): S6 summary table; on ABC transporter transport assay, ABCG2 (summary): key: 0: no observed effect; +: effect observed in the assay; In the ATPase assay showing only inhibition, the - sign is applied
# T1 sequence (Q9UNQ0 1-655): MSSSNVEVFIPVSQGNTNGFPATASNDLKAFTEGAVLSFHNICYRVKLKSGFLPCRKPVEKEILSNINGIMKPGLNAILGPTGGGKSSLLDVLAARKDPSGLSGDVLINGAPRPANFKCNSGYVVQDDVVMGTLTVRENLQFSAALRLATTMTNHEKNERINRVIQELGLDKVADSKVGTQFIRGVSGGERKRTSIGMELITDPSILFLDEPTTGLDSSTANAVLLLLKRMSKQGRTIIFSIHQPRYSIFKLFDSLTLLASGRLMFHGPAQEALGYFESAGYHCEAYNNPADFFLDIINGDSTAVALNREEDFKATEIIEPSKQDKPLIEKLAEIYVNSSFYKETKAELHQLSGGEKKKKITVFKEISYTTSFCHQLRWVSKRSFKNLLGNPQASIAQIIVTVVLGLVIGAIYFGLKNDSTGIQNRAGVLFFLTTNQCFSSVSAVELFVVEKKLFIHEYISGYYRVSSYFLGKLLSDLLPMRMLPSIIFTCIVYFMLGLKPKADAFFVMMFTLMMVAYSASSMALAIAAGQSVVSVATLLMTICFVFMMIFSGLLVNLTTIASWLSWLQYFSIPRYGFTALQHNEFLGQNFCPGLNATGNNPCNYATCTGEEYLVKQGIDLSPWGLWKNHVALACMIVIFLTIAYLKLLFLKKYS
# Protocol: (§1) For cellular transport assays, mammalian PLB (lymphoblastoid) cell lines, overexpressing ABCB1 or ABCG2 were used. The parental PLB cell line was purchased from ATCC, and ABCB1 or ABCG2 overexpressing cell lines were established by using lentiviral vectors for human ABC transporters as described earlier in [29]. The transport assays were carried out in 96-well plates. 1x10^5 cells were incubated in the presence of 0.1 μM Calcein-AM or 1 μM DCV (Dye Cycler Violet) for the ABCB1 and for the ABCG2 assays, respectively. The assay was performed in HPMI medium (NaCl 120 mM, KCl 5 mM, MgCl2 0.4 mM, CaCl2 0.04 mM, HEPES 10 mM, NaHCO3 10 mM, glucose 10 mM, Na2HPO4 5 mM; pH 7.4). Fluorescence of the cells was detected using a Victor X3 plate reader (for Calcein, exc. at 485 nm, em. at 535 nm) or the Enspire 2300 (Perkin Elmer) plate reader (for DCV, exc. at 360 nm, em. at 440 nm). Kinetics of fluorescence intensity changes were analyzed to determine relative inhibition, compared to that of a reference agent, providing full inhibition of the ABC transporter. Two of the Vichem compounds examined (VCC979812 and VCC38977) were not compatible with the DCV uptake assay because of their intrinsic fluorescence, therefore for these two compounds ABCG2 transport inhibition was characterized by following mitoxantrone uptake. Mitoxantrone uptake was measured by flow cytometry (BD FACSCanto at 633 nm) by 20 minutes incubation in the presence of 7.5 μM mitoxantrone. Each compound was measured in at least three independent experiments with three parallels in each case. DMSO, used as a solvent of compounds had no effect in this assay at the applied concentration.
# MtTopo-I = target: T2, MtTopo-I (Mycobacterium tuberculosis, UniProt P9WG49); experiment: DNA relaxation assay of supercoiled pUC18 DNA by MtTopo-I; format: biochemical; conditions: minimum concentration providing complete inhibition
# T2 construct: made in house; host or cells: E. coli
# human ABCB1 [2] = target: T3, human ABCB1 (Homo sapiens, UniProt P08183); experiment: Cellular transport assay, Calcein-AM uptake in ABCB1-overexpressing PLB cells; format: cell-based; conditions: for Effect on ABCB1 mediated transport (in words): PLB cells, compound 5 μM; for ABC transporter transport assay, ABCB1 (summary): S6 summary table; on ABC transporter transport assay, ABCB1 (summary): key: 0: no observed effect; +: effect observed in the assay; In the ATPase assay showing only inhibition, the - sign is applied
# Protocol: as §1
# [3] = test system: HFF, HEK293 and A431 cell lines; format: cell-based, human; conditions: for Toxicity in mammalian cell lines (summary): human, 72 h
# Protocol: (§2) The toxic effects of the selected MtTopo-I inhibitory Vichem compounds were tested in three cell lines, HFF (human foreskin fibroblast), HEK293 (human embryonic kidney) and A431 (human epidermoid carcinoma) cell lines, obtained from ATCC. Establishment of ABC transporter-expressing A431cell lines was achieved by retroviral transduction of the cells as described previously.
# (§3) For cytotoxicity measurements the cells were seeded in a 96-well culture plate at 5,000 cells/well (A431, HEK293) or 6000 cells/well (HFF) and incubated overnight. […] After 72 hours of incubation viability was assessed by PrestoBlue® assay (Invitrogen). IC50 values were obtained by sigmoidal curve fitting in the GraphPad Prism software. All experiments were performed in triplicates and repeated at least in three independent experiments. DMSO, used as solvent of the compounds, had no effect on viability at the applied concentration.
# HFF cell line = experiment: Cytotoxicity, PrestoBlue 72 h, HFF; format: cell-based, human; conditions: Non-toxic = not toxic up to 20 μM
# Protocol: as §2, §3
# parental A431 cell line = experiment: Cytotoxicity, PrestoBlue 72 h, parental A431; format: cell-based, human; conditions: Non-toxic = not toxic up to 20 μM
# Protocol: as §2, §3
# human ABCB1 [4] = target: T3, human ABCB1; experiment: Vanadate-sensitive ATPase activity assay in Sf9 membrane vesicles, ABCB1; format: biochemical; set-up: made in house; host or cells: Sf9 insect cells (baculovirus), membrane vesicles; ABCB1 ATPase Vmax: unit not given here; conditions: for ABCB1 ATPase, concentration at Vmax: concentration at which Vmax was seen; for ABCB1 ATPase Vmax: vanadate-sensitive ATPase, from dose-response curves, basal 5.7±0.7; on ABC transporter ATPase assay, ABCB1 (summary): key: 0: no observed effect; +: effect observed in the assay; In the ATPase assay showing only inhibition, the - sign is applied
# HEK293 cell line = experiment: Cytotoxicity, PrestoBlue 72 h, HEK293; format: cell-based, human; conditions: Non-toxic = not toxic up to 20 μM
# Protocol: as §2, §3
# H37Rv Mtb strain = experiment: H37Rv growth inhibition, resazurin reduction microplate assay (REMA); format: cell-based, Mycobacterium tuberculosis; conditions: for Toxicity in H37Rv assay (summary): S6 summary table
# human ABCG2 [5] = target: T1, human ABCG2; experiment: Vanadate-sensitive ATPase activity assay in Sf9 membrane vesicles, ABCG2; format: biochemical; set-up: made in house; host or cells: Sf9 insect cells (baculovirus), membrane vesicles; ABCG2 ATPase, concentration at Vmax: unit not given here; conditions: for ABCG2 ATPase, concentration at Vmax: concentration at which Vmax was seen; for ABCG2 ATPase Vmax: vanadate-sensitive ATPase, from dose-response curves, basal 22±1.4
# T3 sequence (P08183 whole entry): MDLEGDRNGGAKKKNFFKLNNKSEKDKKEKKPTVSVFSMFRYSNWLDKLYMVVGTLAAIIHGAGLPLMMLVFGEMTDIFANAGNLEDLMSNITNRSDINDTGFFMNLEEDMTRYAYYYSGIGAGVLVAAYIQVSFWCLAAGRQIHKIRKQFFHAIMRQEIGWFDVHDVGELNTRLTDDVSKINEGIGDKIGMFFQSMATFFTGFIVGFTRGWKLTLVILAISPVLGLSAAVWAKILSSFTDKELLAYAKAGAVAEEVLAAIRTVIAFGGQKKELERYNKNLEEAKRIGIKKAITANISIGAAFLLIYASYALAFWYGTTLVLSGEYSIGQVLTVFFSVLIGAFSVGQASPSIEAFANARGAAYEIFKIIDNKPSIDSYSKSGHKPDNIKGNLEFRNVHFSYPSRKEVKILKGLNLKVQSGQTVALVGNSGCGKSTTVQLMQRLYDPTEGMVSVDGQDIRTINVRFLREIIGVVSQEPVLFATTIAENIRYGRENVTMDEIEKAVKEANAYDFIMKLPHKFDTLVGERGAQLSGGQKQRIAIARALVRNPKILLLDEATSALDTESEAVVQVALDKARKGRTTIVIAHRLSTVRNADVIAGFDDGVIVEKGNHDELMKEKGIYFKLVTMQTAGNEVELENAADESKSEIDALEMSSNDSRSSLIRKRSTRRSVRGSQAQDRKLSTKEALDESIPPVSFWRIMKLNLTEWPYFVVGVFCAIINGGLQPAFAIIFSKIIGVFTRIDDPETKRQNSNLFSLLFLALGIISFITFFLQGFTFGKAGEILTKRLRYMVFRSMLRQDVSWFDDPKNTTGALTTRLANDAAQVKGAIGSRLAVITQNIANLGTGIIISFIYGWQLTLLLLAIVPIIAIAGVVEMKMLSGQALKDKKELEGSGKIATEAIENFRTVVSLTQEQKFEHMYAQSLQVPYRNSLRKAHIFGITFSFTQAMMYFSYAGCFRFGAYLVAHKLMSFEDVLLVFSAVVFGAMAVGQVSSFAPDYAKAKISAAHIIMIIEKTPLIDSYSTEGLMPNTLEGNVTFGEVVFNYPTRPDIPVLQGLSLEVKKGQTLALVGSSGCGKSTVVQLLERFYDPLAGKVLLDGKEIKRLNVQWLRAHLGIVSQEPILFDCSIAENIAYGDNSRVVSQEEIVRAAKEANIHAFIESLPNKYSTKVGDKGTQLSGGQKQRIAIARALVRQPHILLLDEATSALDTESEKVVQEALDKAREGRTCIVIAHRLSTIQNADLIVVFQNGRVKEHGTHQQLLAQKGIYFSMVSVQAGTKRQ
# T2 sequence (P9WG49 whole entry): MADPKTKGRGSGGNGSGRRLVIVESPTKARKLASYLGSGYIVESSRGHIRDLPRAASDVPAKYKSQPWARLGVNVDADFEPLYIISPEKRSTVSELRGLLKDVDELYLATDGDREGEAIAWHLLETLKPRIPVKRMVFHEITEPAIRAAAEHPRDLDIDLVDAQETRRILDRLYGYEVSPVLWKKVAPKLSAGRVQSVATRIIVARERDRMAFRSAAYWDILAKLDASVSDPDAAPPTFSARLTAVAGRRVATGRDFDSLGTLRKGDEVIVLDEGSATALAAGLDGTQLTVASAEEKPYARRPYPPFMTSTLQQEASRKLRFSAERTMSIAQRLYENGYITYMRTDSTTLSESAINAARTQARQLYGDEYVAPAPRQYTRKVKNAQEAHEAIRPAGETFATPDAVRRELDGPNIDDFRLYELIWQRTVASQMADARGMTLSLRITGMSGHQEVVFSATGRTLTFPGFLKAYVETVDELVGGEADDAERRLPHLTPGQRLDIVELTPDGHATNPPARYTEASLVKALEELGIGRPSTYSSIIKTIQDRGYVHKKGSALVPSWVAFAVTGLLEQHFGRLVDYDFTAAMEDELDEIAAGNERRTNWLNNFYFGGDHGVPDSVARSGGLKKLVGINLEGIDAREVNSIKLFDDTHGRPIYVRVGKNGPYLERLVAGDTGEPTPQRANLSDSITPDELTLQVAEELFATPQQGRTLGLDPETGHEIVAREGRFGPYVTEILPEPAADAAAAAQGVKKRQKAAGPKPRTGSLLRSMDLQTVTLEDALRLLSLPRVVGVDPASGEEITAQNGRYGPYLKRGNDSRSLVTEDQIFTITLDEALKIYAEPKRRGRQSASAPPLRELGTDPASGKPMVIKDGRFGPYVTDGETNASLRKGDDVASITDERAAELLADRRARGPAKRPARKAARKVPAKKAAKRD
Structure (SMILES),Effect on ABCG2 mediated transport (in words) (human ABCG2 [1]),"ABC transporter transport assay, ABCG2 (summary) (human ABCG2 [1])",Complete inhibition of MtTopoI (MtTopo-I) [µM],Effect on ABCB1 mediated transport (in words) (human ABCB1 [2]),"ABC transporter transport assay, ABCB1 (summary) (human ABCB1 [2])",Toxicity in mammalian cell lines (summary) [3],"Toxicity in HFF cell line, IC50 (HFF cell line)","Toxicity in parental A431 cell line, IC50 (parental A431 cell line)","ABCB1 ATPase, concentration at Vmax (human ABCB1 [4]) [µM]",ABCB1 ATPase Vmax (human ABCB1 [4]),"Toxicity in HEK293 cell line, IC50 (HEK293 cell line)",Toxicity in H37Rv assay (summary) (H37Rv Mtb strain),"ABCG2 ATPase, concentration at Vmax (human ABCG2 [5])",ABCG2 ATPase Vmax (human ABCG2 [5]),further results
Brc1c2ccccc2c(Br)c2nc(-c3ccco3)c(-c3ccco3)nc12 [VCC450327],only moderately influence; also recorded: only a slight effect,+,0.1,no effect,0,0,Non-toxic,Non-toxic,0.19,9.6±1.3,Non-toxic,0,0.4,27.2±0.8,"Toxicity in human cell lines (in words) [3]: non-toxic; MIC90 of compounds in H37Rv growth test (H37Rv Mtb strain; minimum concentration providing 90% growth inhibition, 20 to 0.04 μM, N.I. = no inhibition observed up to 20 μM): N.I."
Cc1ccc(C)c(SCc2nc3cc4ccccc4cc3nc2CSc2cc(C)ccc2C)c1 [VCC891909],no such transporter inhibitory effect,0,7.5 to 10,no such transporter inhibitory effect,0,0,Non-toxic+,Non-toxic,3,7.8±1.2,Non-toxic,+,0.01,25.3±5,"ABC transporter ATPase assay, ABCB1 (summary) (human ABCB1 [4]; S6 summary table): 0; Effect on ABCB1-ATPase activity (in words) (human ABCB1 [4]; Sf9 membrane vesicles, 0.1–10 μM for the stimulation in b53): no measurable effect; MIC90 (H37Rv Mtb strain; Mycobacterium tuberculosis, H37RV, minimum concentration providing 90% growth inhibition, 20 to 0.04 μM, N.I. = no inhibition observed up to 20 μM, read-out: MIC90 of compounds in H37Rv growth test): 10.4 µM; Growth inhibition of H37Rv mycobacteria (in words) (H37Rv Mtb strain; tested up to 20 μM): Mtb growth inhibitory effect; ABC transporter ATPase assay, ABCG2 (summary) (human ABCG2 [5]; S6 summary table): 0; Effect on ABCG2-ATPase activity (in words) (human ABCG2 [5]; Sf9 membrane vesicles, 0.1–10 μM for stimulation, 50 μM for inhibition): no measurable effect"
"O=c1c(O)c(-c2ccc(O)c(O)c2)oc2cc(O)cc(O)c12 [quercetin, reference compound]",–,–,–,–,–,–,–,–,–,–,–,–,–,38.5±1,–
